This note sets out measurements from patent US20190125735A1, “INHIBITION OF P38 MAPK FOR THE TREATMENT OF CANCER” (Board of Regents, The University of Texas System, priority 2015, published 2019).

The subject of one assay is mouse BCR-ABL+ ALL cells. Description: BCR-ABL+ ALL model in NOD-SCID mice. Particulars: dasatinib 10 mg/kg oral, dexamethasone 1 mg/kg oral, SB203580 40 mg/kg i.p.; treatment from day 5. Type of assay: in vivo.
The next assay relates to HMLE-Snail-ER cells. Description: 4-OHT inducible EMT in HMLE-Snail-ER cells, immunoblotting. Format: cell-based, human. Particulars: HMLE-Snail-ER concurrently exposed to 4-OHT and SB203580. As for the experimental part: To ascertain whether inhibiting p38 impedes the initiation of EMT, two dynamic models of EMT induction were utilized. First, MCF10A immortalized human mammary epithelial cells were treated with TGFβ1 which elicits EMT. […] Second, an inducible EMT system was used wherein a fusion protein, comprising the EMT-inducing transcription factors Snail or Twist and the estrogen-binding domain of the estrogen receptor (ER), is stably expressed in epithelial HMLE cells (HMLE-Snail-ER, HMLE-Twist-ER). Addition of the ER-ligand tamoxifen (4-OHT) promotes nuclear translocation of the Snail-ER and Twist-ER proteins and elicits EMT. […] Similarly, p38 shRNA abolished the capacity of HMLE-Twist-ER cells to undergo EMT (FIG. 4E, compare lanes 4 to 8) and to form spheres (FIG. 16F) in response to 4-OHT treatment.
Immortalized human mammary epithelial (HMLE) cells expressing empty vector (pWZL), Snail, Twist, Goosecoid (GSC), or an activated form of TGFβ1, V12H-Ras-transformed HMLE (HMLER) and HMLER-FOXC2 cells were maintained as previously described (Elenbaas et al., 2001) For 4-hydroxy-tamoxifen (4-OHT) treatment, HMLE-Snail-ER or HMLE-Twist-ER cells were exposed to 20 nM 4-OHT for the indicated number of days. MCF7, MDA-MB-231 and SUM159 human breast cancer cells and the 4T1 mouse mammary carcinoma cells were cultured as described. […]
Background: In western blotting, separated proteins are transferred to a membrane and probed.

Assay [1] concerns DU145 cells. As to the kind of experiment: Tumorsphere assay, DU145 cells. Format: cell-based, human. Particulars: DU145, SB203580 5 μM, 7 days. As for the experimental part: Cell lines: Authenticated LNCaP, DU145, and PC3 cells were procured from ATCC and cultured in RPMI with 10% fetal bovine serum (FBS) with penicillin/streptomycin. Cells overexpressing EMT transcription factors and shRNA were also cultured in the same media. HEK293T cells were cultured in DMEM with 10% FBS and penicillin/streptomycin. All cell lines used for this study were recently confirmed negative for mycoplasma contamination.
Immunoblotting, Immunofluorescence, RTPCR, wound healing- and tumorsphere assays were performed as previously described (Sarkar et al., 2015). Cell viability (MTS) was assessed using the CellTiter96 Aqueous One-Solution Cell Proliferation Assay kit (Promega).

In assay [2] the test system is HMLE-Snail, HMLE-Twist, MDA-MB-231 and SUM159 cells. Description: FACS CD44high/CD24low of mesenchymal mammary cells. Type of assay: cell-based, human. Particulars: relative to vehicle-treated cells. As for the experimental part:
It was next ascertained whether p38 inhibition compromises the maintenance of the established EMT phenotype.
Quantification of invadopodia (Eckert et al., 2011), scratch/wound-healing assays (Sarkar et al., 2015) fluorescence-activated cell sorting (FACS), and sphere-formation assays (Mani et al., 2008) were conducted as described previously.

In assay [3] the test system is HMLE-Snail-ER and HMLE-Twist-ER cells. Description: FACS CD44high/CD24low of 4-OHT-treated HMLE-Snail-ER and HMLE-Twist-ER cells. Format: cell-based, human. Particulars: 4-OHT-treated cells, SB203580 exposure. How it is done: FIGS. 15A-15L: p38 inhibition compromises the acquisition and maintenance of EMT and stem cell properties in vitro. […] Cells were harvested and the corresponding lysates were analyzed by immunoblotting for FOXC2, E-cadherin and mesenchymal markers. β-actin was used as a loading control. […] Cells were harvested at the indicated timepoints and the corresponding lysates were analyzed by immunoblotting for FOXC2, E-cadherin and mesenchymal markers. β-actin was used as a loading control. […] One thousand cells were seeded per well in ultra-low attachment plates and cultured for 7-10 days. Spheres with a diameter greater than 75 μm were counted. The data are reported as the number of spheres formed/1000 seeded cells±SEM. […] Data are presented as mean±SEM. […] The corresponding lysates were analyzed by immunoblotting for FOXC2, E-cadherin and mesenchymal markers. β-actin was used as a loading control. (F) The sphere-forming efficiency of 4-OHT-treated HMLE-Twist-ER cells, transduced with control shRNA (shControl) or p38 shRNA (shp38), was determined. […] (H) The sphere-forming efficiency of the indicated cells was determined in the presence of vehicle or SB203580. […] (J) The relative wound closure by the indicated cells, treated with vehicle or SB203580, was measured by image analysis and represented in a graphical format. […] Degradation of FITC-gelatin was quantified by image analysis. n=150 cells/sample. […]

The subject of assay [4] is DU145 cells. Description: DU145 subcutaneous tumors in NOD/SCID mice. Type of assay: in vivo. Particulars: subcutaneous dosing 5 days/week; SB203580 0.2 μmols per mouse, Enzalutamide 10 mg/kg; vs vehicle.
Protocol: To investigate the effect of inhibition of FOXC2-dependent EMT/CSC attributes on tumor formation in vivo, NOD/SCID mice were subcutaneously injected with DU145 cells and began treatment in vivo, after formation of palpable tumors.
Immediately after sacrificing the mice, ˜100 μl blood was isolated via venipuncture in EDTA-treated collection tubes and stored on ice. Within 30 minutes, the blood was spun down at 1200 rpm for 5 minutes, and the pellet resuspended in 1 ml ACK-lysing buffer (Life Tech) and further incubated for 3-5 minutes. Cells were washed once with PBS, resuspended in RPMI with 10% FBS and pen/strep, and cultured on 10 cm tissue culture dishes. RFP-positive colonies (originating from the labeled DU145 cells injected into mice) were counted after 3-4 days in culture and quantified.
˜4 week-old male NOD.CB17-Prkdcscid/J mice were purchased from the Jackson Laboratory (Maine, USA). […] Once palpable tumors were discernable, tumor-bearing mice were randomly segregated into 4 groups, and drug treatment was initiated every 24 hours for 5 days/week. […] Investigators were blinded to the group allocation while assessing experimental outcomes. At the end of the treatment period, tumors were excised, average diameter calculated using calipers, and tumor weight noted. […]

Description for mouse BCR-ABL+ ALL cells: Leukemia progression was monitored by both bioluminescence imaging and quantifying mCherry+ ALL cells in peripheral blood samples by flow cytometry. […] Non-obese diabetic severe combined immunodeficient (NOD-SCID) mice were housed under high-barrier conditions in the Department of Veterinary Medicine and Surgery at MD Anderson. To generate the in vivo leukemia model, six to eight weeks old NOD-SCID mice were intravenously injected with luciferase- and mCherry-expressing BCR-ABL+ mouse leukemic cells (2×10^6 cells); engraftment of the transplanted cells was confirmed by bioluminescence imaging. For bioluminescence imaging, each mouse was intraperitoneally injected with D-Luciferin (150 mg/kg) and imaged using the IVIS Lumina imaging system (PerkinElmer).
Leukemia treatment started 5 days after transplantation. […] Treatment was continued until mice were succumbed to disease.
Bone marrow samples from the mice were harvested 4 days after initiating the drug treatment. […] Peripheral blood specimens were directly harvested from mice tail tips into PBS supplemented with ethylenediaminetetraacetic acid (2 mM). Red blood cells were subjected to lysis and were neutralized with 20% fetal bovine serum supplemented with alpha minimum essential medium. mCherry+ leukemic cells in the peripheral blood were detected by flow cytometry analysis after red blood cells were lysed.

Consider `C[S+]([O-])c1ccc(-c2nc(-c3ccc(F)cc3)c(-c3ccncc3)[nH]2)cc1` (stereo not drawn) [SB203580, 4-(4-Fluorophenyl)-2-(4-methylsulfinylphenyl)-5-(4-pyridyl) 1H-imidazole], for which, in the assay with mouse BCR-ABL+ ALL cells, the “Leukemia progression and survival (therapeutic efficacy)” value is listed as “did not slow leukemia progression or prolong survival”. The “EMT and FOXC2 upregulation” value with HMLE-Snail-ER cells is given as “failed to undergo EMT or upregulate FOXC2”. Also, the Tumorsphere formation entry with DU145 cells [1] was “significant reduction”. Also, the “Percentage of cells displaying the CD44^high/CD24^low antigenic profile” value in assay [2] was “substantially reduced”. In addition, the “CD44^high/CD24^low marker profile” value in assay [3] was “failed to acquire”. Also, the “Tumor size (volume and weight)” value with DU145 cells [4] was “no appreciable change in tumor size”.
